From patent US20250312288A1, “LIPIDS AND LIPID NANOPARTICLE FORMULATIONS” (LONGUIDE BIOPHARMA CORPORATION, priority 2024, published 2025)

System: mice
Assay: In vivo delivery of FLuc-circ-RNA lipid nanoparticles in mice (IVIS imaging)
Conditions: for delivery efficiencies on change from mRNA to circular RNA: statement on Table 3, circular RNA LNP vs mRNA LNP; for IVIS: FLuc-circRNA LNP, IV
Method: 8.2 Investigation of the Delivery Efficacy of Nucleic Acid Lipid Nanoparticles for FLuc-Circ-mRNA in Mice
Lipid nanoparticles loaded with nucleic acid drugs were prepared according to step 2, replacing FLuc-mRNA with FLuc-circ-RNA (Shanghai Zhiwei Technology Development Co., Ltd.). After formulation, the nanoparticles were administered via intramuscular injection (into the quadriceps femoris muscle of mice), intravenous injection (into the tail vein of mice), intraperitoneal injection, or subcutaneous injection (subcutaneously on the back). Approximately 75 μL was injected per mouse, with a total of 3 mice per group. In vivo imaging (PerkinElmer, IVIS Lumina III) was performed after a certain period of time. Ten to fifteen minutes before imaging, 200 μL of a 15 mg/mL D-Luciferin working solution was injected intraperitoneally, followed by imaging analysis using the in vivo imaging system.

| SMILES | delivery efficiencies on change from mRNA to circular RNA | IVIS (organ liver) | IVIS (organ lung) | IVIS (organ spleen) |
| --- | --- | --- | --- | --- |
| CCCCCCC(CCCCCC)C(=O)NCCOC(=O)C(O)CN(CCO)CCCN(CC(O)C(=O)OCCNC(=O)C(CCCCCC)CCCCCC)CC(O)C(=O)OCCNC(=O)C(CCCCCC)CCCCCC (stereo not shown) [Compound L0711] | further increased the delivery efficiencies |  |  |  |
| CCCCCCC(CCCCCC)C(=O)OCCCCCCNC(=O)C(O)CN(CCO)CCCN(CC(O)C(=O)NCCCCCCOC(=O)C(CCCCCC)CCCCCC)CC(O)C(=O)NCCCCCCOC(=O)C(CCCCCC)CCCCCC (stereo not shown) [Compound L0710] | further increased the delivery efficiencies | 3.07E+08 | 4.78E+06 | 9.97E+07 |
| CCCCCCCCC(CCCCCC)C(=O)NCCOC(=O)C(O)CN(CCO)CCCN(CC(O)C(=O)OCCNC(=O)C(CCCCCC)CCCCCCCC)CC(O)C(=O)OCCNC(=O)C(CCCCCC)CCCCCCCC (stereo not shown) [Compound L0714] | further increased the delivery efficiencies |  |  |  |
| CCCCCCOC(C)OCCCCCCOC(=O)C(O)CN(CCO)CCCN(CC(O)C(=O)OCCCCCCOC(C)OCCCCCC)CC(O)C(=O)OCCCCCCOC(C)OCCCCCC (stereo not shown) [Compound L0692] | further increased the delivery efficiencies | 3.34E+06 | 8.55E+04 | 2.64E+06 |
